These results are taken from PubChem BioAssay AID256 (DTP/NCI, 2004).

Molecules are shown by their SMILES. Toxic doses and inconclusive results are not listed.

In this experiment the test system is CD2F1 mice, L1210 leukemia ip, survival T/C. The experiment is described as follows: NCI In Vivo Anticancer Drug Screen. Data for tumor model L1210 Leukemia (intraperitoneal) in CD2F1 (CDF1) mice. The settings on record: higher = longer survival. The procedure, abridged: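 Each value reflects a quotient of treated over vehicle control outcomes in mice with a transplanted tumor.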

Setting [1] is: endpoint: mean survival time, dose: 50.0 mg/kg/injection, schedule: Q04DX002 (ip), vehicle: saline with Tween-80.
Where [2] appears, read: endpoint: mean survival time, dose: 100.0 mg/kg/injection, schedule: Q04DX002 (ip), vehicle: saline with Tween-80.
[3] abbreviates: endpoint: mean survival time, dose: 200.0 mg/kg/injection, schedule: Q04DX002 (ip), vehicle: saline with Tween-80.
Setting [4] is: endpoint: mean survival time, dose: 400.0 mg/kg/injection, schedule: Q04DX002 (ip), vehicle: saline with Tween-80.
Setting [5] is: endpoint: mean survival time, dose: 25.0 mg/kg/injection, schedule: Q04DX002 (ip), vehicle: saline with Tween-80.
The mark [6] stands for this setting: endpoint: mean survival time, dose: 100.0 mg/kg/injection, schedule: Q04DX003 (ip), vehicle: saline with Tween-80.
[7] abbreviates: endpoint: mean survival time, dose: 200.0 mg/kg/injection, schedule: Q04DX003 (ip), vehicle: saline with Tween-80.
Setting [8] is: endpoint: mean survival time, dose: 100.0 mg/kg/injection, schedule: Q01DX001 (ip), vehicle: saline with Tween-80.
Setting [9] is: endpoint: mean survival time, dose: 100.0 mg/kg/injection, schedule: Q01DX009 (ip), vehicle: saline with Tween-80.
Setting [10] is: endpoint: mean survival time, dose: 200.0 mg/kg/injection, schedule: Q01DX001 (ip), vehicle: saline with Tween-80.
The mark [11] stands for this setting: endpoint: mean survival time, dose: 200.0 mg/kg/injection, schedule: Q01DX009 (ip), vehicle: saline with Tween-80.
The mark [12] stands for this setting: endpoint: mean survival time, dose: 400.0 mg/kg/injection, schedule: Q01DX001 (ip), vehicle: saline with Tween-80.
[13] abbreviates: endpoint: mean survival time, dose: 400.0 mg/kg/injection, schedule: Q01DX009 (ip), vehicle: saline with Tween-80.
Where [14] appears, read: endpoint: mean survival time, dose: 400.0 mg/kg/injection, schedule: Q04DX003 (ip), vehicle: saline with Tween-80.

In the case of `O=C(OC1(c2c(F)c(F)c(F)c(F)c2F)C2C=CC1CC2)c1ccc([N+](=O)[O-])cc1` (stereo not drawn), the T/C reads like this: under setting [1], 102 % of control; under setting [2], 105 % of control; under setting [3], 98 % of control; under setting [4], 90 % of control.

For the compound `O=C(OCC1OCOC1C1OCOC1COC(=O)c1ccccc1)c1ccccc1` (stereo not drawn), the T/C is 102 % of control (endpoint: mean survival time, dose: 100.0 mg/kg/injection, schedule: Q04DX003 (ip), vehicle: Klucel (hydroxypropylcellulose) (HPC)); 97 % of control (endpoint: mean survival time, dose: 200.0 mg/kg/injection, schedule: Q04DX003 (ip), vehicle: Klucel (hydroxypropylcellulose) (HPC)); 91 % of control (endpoint: mean survival time, dose: 400.0 mg/kg/injection, schedule: Q04DX003 (ip), vehicle: Klucel (hydroxypropylcellulose) (HPC)).

As for `CC(C)(C)c1cc(N)cc(C(C)(C)C)c1O`, the T/C was 91 % of control under setting [1], 98 % of control under setting [2] and 98 % of control under setting [3].

In the case of `CCC(O)(c1ccccc1)C(O)(CC)c1ccccc1` (stereo not drawn), the T/C reads like this: under setting [1], 96 % of control; under setting [2], 86 % of control.

Regarding `Cc1cccc(C2=N/C(=C\c3ccc(N(C)C)cc3)C(=O)O2)c1`, the T/C by setting is: under setting [5], 102 % of control; under setting [1], 91 % of control; under setting [2], 94 % of control; under setting [3], 95 % of control; under setting [4], 95 % of control.

For `COc1cc(/C=N/NC(=O)CN(C)C)cc(OC)c1N(CCCl)CCCl`, the T/C (endpoint: mean survival time, dose: 50.0 mg/kg/injection, schedule: Q01DX009 (ip), vehicle: Klucel (hydroxypropylcellulose) (HPC)) was 122 % of control and the T/C (endpoint: mean survival time, dose: 100.0 mg/kg/injection, schedule: Q01DX009 (ip), vehicle: Klucel (hydroxypropylcellulose) (HPC)) is 113 % of control.

Take `O=c1[nH]cc(F)c(=O)n1-c1ccco1`: the T/C was 111 % of control under setting [6] and 166 % of control under setting [7].

Regarding `C[n+]1csc2ccccc21`, the T/C is, setting by setting: under setting [8], 104 % of control; under setting [9], 105 % of control; under setting [6], 103 % of control; under setting [10], 98 % of control; under setting [11], 105 % of control; under setting [7], 103 % of control. For the same compound, the T/C is, setting by setting: under setting [12], 104 % of control; under setting [13], 103 % of control; under setting [14], 105 % of control.

For `O=C(O)C(Cc1ccc(O)cc1)c1ccccc1` (stereo not drawn), the T/C under setting [9] was 103 % of control, the T/C under setting [11] was 101 % of control and the T/C under setting [13] was 95 % of control.

For `Cn1c(C(N)=O)cc(=O)n1-c1ccccc1`, the T/C runs as follows: (endpoint: mean survival time, dose: 100.0 mg/kg/injection, schedule: Q01DX001 (ip), vehicle: saline sonified) 102 % of control; under setting [9], 107 % of control; (endpoint: mean survival time, dose: 200.0 mg/kg/injection, schedule: Q01DX001 (ip), vehicle: saline sonified) 96 % of control; under setting [11], 103 % of control; (endpoint: mean survival time, dose: 400.0 mg/kg/injection, schedule: Q01DX001 (ip), vehicle: saline sonified) 98 % of control; under setting [13], 105 % of control.

Consider `N#CSCCN1C(=O)C2C3CCC(O3)C2C1=O` (stereo not drawn), for which the T/C under setting [5] was 103 % of control.

For `CCCN(CCC)CCC(=O)OCC`, the T/C is 97 % of control under setting [9]; 97 % of control under setting [6]; 97 % of control under setting [11]; 114 % of control under setting [7]; 100 % of control under setting [13]; 100 % of control under setting [14].

In the case of `CC(C)(C)NC/C(=C\c1ccccc1)C(=O)c1ccccc1`, the T/C is 109 % of control (endpoint: mean survival time, dose: 25.0 mg/kg/injection, schedule: Q04DX003 (ip), vehicle: saline with Tween-80); 100 % of control (endpoint: mean survival time, dose: 50.0 mg/kg/injection, schedule: Q04DX003 (ip), vehicle: saline with Tween-80); 117 % of control under setting [6].

As for `CCCCC(CC)C(=O)N1CCOCC1` (stereo not drawn), the T/C runs as follows: under setting [9], 96 % of control; under setting [11], 92 % of control; under setting [13], 86 % of control.

Turning to `O=[N+]([O-])c1ccc(F)c(Cl)c1`, the T/C (endpoint: mean survival time, dose: 25.0 mg/kg/injection, schedule: Q01DX009 (ip), vehicle: other) was 96 % of control; the T/C (endpoint: mean survival time, dose: 50.0 mg/kg/injection, schedule: Q01DX009 (ip), vehicle: other) was 100 % of control; the T/C (endpoint: mean survival time, dose: 100.0 mg/kg/injection, schedule: Q01DX009 (ip), vehicle: other) is 96 % of control.

As for `CCN(CC)CCN(CC)C(=O)C(O)(c1ccccc1)c1ccccc1`, the T/C runs as follows: (endpoint: mean survival time, dose: 50.0 mg/kg/injection, schedule: Q01DX009 (ip), vehicle: saline) 98 % of control; (endpoint: mean survival time, dose: 100.0 mg/kg/injection, schedule: Q01DX009 (ip), vehicle: saline) 95 % of control; (endpoint: mean survival time, dose: 200.0 mg/kg/injection, schedule: Q01DX009 (ip), vehicle: saline) 91 % of control.

Regarding `[Cl][Hg][Cl]`, the T/C is 101 % of control (endpoint: median survival time, dose: 0.39 mg/kg/injection, schedule: Q01DX009 (ip), vehicle: saline); 97 % of control (endpoint: median survival time, dose: 0.78 mg/kg/injection, schedule: Q01DX009 (ip), vehicle: saline); 101 % of control (endpoint: median survival time, dose: 1.56 mg/kg/injection, schedule: Q01DX009 (ip), vehicle: saline); 92 % of control (endpoint: median survival time, dose: 3.12 mg/kg/injection, schedule: Q01DX009 (ip), vehicle: saline).

`CCC(CC)=NN(C)C`: the T/C (endpoint: mean survival time, dose: 75.0 mg/kg/injection, schedule: Q01DX001 (ip), vehicle: saline) was 100 % of control; the T/C (endpoint: mean survival time, dose: 150.0 mg/kg/injection, schedule: Q01DX001 (ip), vehicle: saline) is 96 % of control; the T/C (endpoint: mean survival time, dose: 300.0 mg/kg/injection, schedule: Q01DX001 (ip), vehicle: saline) was 96 % of control.

Turning to `Nc1cc(Cl)ccc1C(=O)O`, the T/C was 103 % of control under setting [9], 104 % of control under setting [11] and 86 % of control under setting [13].

As for `O=C1O/C(=C\c2ccccc2)c2c(Br)c(Br)c(Br)c(Br)c21`, the T/C (endpoint: mean survival time, dose: 37.5 mg/kg/injection, schedule: Q01DX009 (ip), vehicle: saline) is 96 % of control; the T/C (endpoint: mean survival time, dose: 75.0 mg/kg/injection, schedule: Q01DX009 (ip), vehicle: saline) is 96 % of control; the T/C (endpoint: mean survival time, dose: 150.0 mg/kg/injection, schedule: Q01DX009 (ip), vehicle: saline) was 98 % of control; the T/C (endpoint: mean survival time, dose: 300.0 mg/kg/injection, schedule: Q01DX009 (ip), vehicle: saline) is 100 % of control.

Turning to `c1ccc2c[n+]3ccccc3cc2c1`, the T/C by setting is: (endpoint: mean survival time, dose: 12.5 mg/kg/injection, schedule: Q04DX003 (ip), vehicle: saline) 97 % of control; (endpoint: mean survival time, dose: 25.0 mg/kg/injection, schedule: Q04DX003 (ip), vehicle: saline) 98 % of control.

`NC(=O)Nc1n[nH]c(-c2ccccc2)n1`: the T/C by setting is: under setting [6], 93 % of control; under setting [7], 91 % of control; under setting [14], 91 % of control.

In the case of `Cc1csc2ncnc(Cl)c12`, the T/C under setting [8] is 101 % of control, the T/C under setting [10] was 97 % of control and the T/C under setting [12] was 97 % of control.

Turning to `Nc1ccc(C(=O)Oc2ccc([N+](=O)[O-])cc2)cc1`, the T/C is, setting by setting: under setting [9], 108 % of control; under setting [11], 102 % of control; under setting [13], 98 % of control.

Consider `CC1CC[N-]CC1.CC1CC[N-]CC1.CS(C)=O.[Cl][Rh]([Cl])[Cl]`, for which the T/C under setting [6] is 96 % of control.

Regarding `OCCc1ccncc1`, the T/C is 103 % of control (endpoint: mean survival time, dose: 100.0 mg/kg/injection, schedule: Q01DX001 (ip), vehicle: saline) and 105 % of control (endpoint: mean survival time, dose: 200.0 mg/kg/injection, schedule: Q01DX001 (ip), vehicle: saline).

With `ICC(CI)(CI)CI`, the T/C is 100 % of control under setting [8], 93 % of control under setting [10] and 100 % of control under setting [12].

For the compound `NCCCC(NN)C(=O)O` (stereo not drawn), the T/C was 100 % of control (endpoint: mean survival time, dose: 7.5 mg/kg/injection, schedule: Q01DX009 (ip), vehicle: saline); 97 % of control (endpoint: mean survival time, dose: 15.0 mg/kg/injection, schedule: Q01DX009 (ip), vehicle: saline); 94 % of control (endpoint: mean survival time, dose: 30.0 mg/kg/injection, schedule: Q01DX009 (ip), vehicle: saline).

For `Cn1c(=O)ccc2ccccc21`, the T/C is, setting by setting: under setting [2], 101 % of control; under setting [3], 87 % of control.

`CCCCCCCCC(C(=O)c1ccccc1)=C(C(F)(F)F)C(F)(F)F`: the T/C under setting [9] was 91 % of control.

On to `CC(=O)C(C(C)=O)c1ccc([N+](=O)[O-])cc1[N+](=O)[O-].CC(=O)C(C(C)=O)c1ccc([N+](=O)[O-])cc1[N+](=O)[O-].[Cu]`, for which the T/C runs as follows: (endpoint: median survival time, dose: 50.0 mg/kg/injection, schedule: Q04DX002 (ip), vehicle: saline with Tween-80) 88 % of control; (endpoint: median survival time, dose: 100.0 mg/kg/injection, schedule: Q04DX002 (ip), vehicle: saline with Tween-80) 88 % of control; (endpoint: median survival time, dose: 400.0 mg/kg/injection, schedule: Q04DX002 (ip), vehicle: saline with Tween-80) 88 % of control.
